Data taken from patent publication US20140011839A1, “COMPOSITIONS AND METHODS FOR TREATING AND INHIBITING VIRAL INFECTIONS” (priority 2012, published 2014).

Legend:
[1] = test system: HPV-11; assay: HPV transient replication assay (E1/E2 expression vectors plus ori plasmid, qPCR of replicated DNA); format: cell-based, human papillomavirus; conditions: for SI90 (CC50/EC90): selectivity index
Excerpt: (§1) Specifically, in these tests, vectors for expression of an HPV genotype-matched set of viral El and E2 proteins (derived from virus strain HPV-11) along with an HPV ori-containing plasmid were cotransfected into HEK293 cells. […] Low molecular weight DNA was harvested 2 days post-transfection and digested with Dpnl and exonuclease Ill to remove unreplicated transfected plasmid DNA. The replicated DNA was then subjected to real time qPCR (quantitative polymerase chain reaction) analyses in triplicate. Two controls were performed. One was to omit the El expression vector to provide a background amount of undigested and unreplicated DNA. The other, positive control was treatment with the known inhibitor cidofovir, as mentioned above. A toxicity assay based upon cell viability at the time of harvest on day 2 was performed alongside each transient replication assay in 293 cells. The test compounds were added 4 hours post transfection for a total exposure of 44 hours. More than 1×10^5 cells were scored in a BioRad Automatic Cell Counter, with a determination of the total numbers, the numbers of trypan blue stained (dead) cells, and the % of dead cells.

[2] = toxicity assay based upon cell viability (trypan blue) alongside the replication assay; conditions: human
Excerpt: as §1

SMILES | SI90 (CC50/EC90) [1] | CC50 at 44 h [2] | EC90 ([1]; Human papillomavirus, HPV-11 E1/E2 + ori plasmid in HEK293 cells, compounds tested at 1, 10, 100 μM, 44 hours exposure, read-out: EC90 (concentration that reduces viral replication by 90%))
CCN(CC)Cc1cc(Nc2ccnc3cc(Cl)ccc23)ccc1O [Amodiaquine, amodiaquine] | >2 | > 100 µM | 
Nc1ccn(C[C@@H](CO)OCP(=O)(O)O)c(=O)n1 [Cidofovir, cidofovir] | 1 | > 200 µM | > 200 µM
